# Results as given in ChEMBL document CHEMBL4196018, “New antitumor anthra[2,3-b]furan-3-carboxamides: Synthesis and structure-activity relationship” (Eur J Med Chem, 2018).
# Activity calls are given as the source filed them. The calls are words filed in the database; no cut-off is given here.
# System: K562
# Test: Antiproliferative activity against human K562 cells after 72 hrs by MTT assay
# Assay type: functional, cell-based
# Settings: K562, 72 h
row,Compound,IC50 [nM]
1,Cc1oc2c(O)c3c(c(O)c2c1CN1CC[C@H](N)C1)C(=O)c1ccccc1C3=O,1300
2,NC1CCN(C(=O)c2coc3c(O)c4c(c(O)c23)C(=O)c2ccccc2C4=O)CC1,2300
3,CN[C@H]1CCN(C(=O)c2coc3c(O)c4c(c(O)c23)C(=O)c2ccccc2C4=O)C1,2900
4,CN1CCN(NC(=O)c2coc3c(O)c4c(c(O)c23)C(=O)c2ccccc2C4=O)CC1,1100
5,N[C@@H]1CCN(C(=O)c2coc3c(O)c4c(c(O)c23)C(=O)c2ccccc2C4=O)C1,2300
6,N[C@H]1CCN(C(=O)c2coc3c(O)c4c(c(O)c23)C(=O)c2ccccc2C4=O)C1,1100
7,Cc1oc2c(O)c3c(c(O)c2c1CN1CC[C@@H](N)C1)C(=O)c1ccccc1C3=O,1200

# System: not listed separately
# Test: Antiproliferative activity against human K562/4 cells after 72 hrs by MTT assay
# Assay type: functional, cell-based
# Settings: K562/4, 72 h
row,Compound,IC50 [nM]
1,Cc1oc2c(O)c3c(c(O)c2c1CN1CC[C@H](N)C1)C(=O)c1ccccc1C3=O,1800
2,NC1CCN(C(=O)c2coc3c(O)c4c(c(O)c23)C(=O)c2ccccc2C4=O)CC1,9600
3,CN[C@H]1CCN(C(=O)c2coc3c(O)c4c(c(O)c23)C(=O)c2ccccc2C4=O)C1,5300
4,CN1CCN(NC(=O)c2coc3c(O)c4c(c(O)c23)C(=O)c2ccccc2C4=O)CC1,1500
5,N[C@@H]1CCN(C(=O)c2coc3c(O)c4c(c(O)c23)C(=O)c2ccccc2C4=O)C1,3700
6,N[C@H]1CCN(C(=O)c2coc3c(O)c4c(c(O)c23)C(=O)c2ccccc2C4=O)C1,1500
7,Cc1oc2c(O)c3c(c(O)c2c1CN1CC[C@@H](N)C1)C(=O)c1ccccc1C3=O,1900

# System: not listed separately
# Test: Drug uptake in human K562 cells at 2 uM after 1 to 24 hrs by flow cytometry
# Assay type: ADME, cell-based
# Settings: k562, 2 µM
row,Compound,Drug uptake
1,N[C@H]1CCN(C(=O)c2coc3c(O)c4c(c(O)c23)C(=O)c2ccccc2C4=O)C1,Active

# System: Lymphocyte
# Test: Cytotoxicity against human lymphocytes assessed as reduction in cell viability at 25 uM after 72 hrs by MTT assay
# Assay type: cell-based
# Settings: not given
row,Compound,Activity
1,N[C@H]1CCN(C(=O)c2coc3c(O)c4c(c(O)c23)C(=O)c2ccccc2C4=O)C1,Non-Toxic

# System: HeLa
# Test: Antiproliferative activity against human HeLa cells after 72 hrs by MTT assay
# Assay type: functional, cell-based
# Settings: not given
row,Compound,IC50 [nM]
1,Cc1oc2c(O)c3c(c(O)c2c1CN1CC[C@H](N)C1)C(=O)c1ccccc1C3=O,2300
2,NC1CCN(C(=O)c2coc3c(O)c4c(c(O)c23)C(=O)c2ccccc2C4=O)CC1,4200
3,CN[C@H]1CCN(C(=O)c2coc3c(O)c4c(c(O)c23)C(=O)c2ccccc2C4=O)C1,5000
4,CN1CCN(NC(=O)c2coc3c(O)c4c(c(O)c23)C(=O)c2ccccc2C4=O)CC1,2200
5,N[C@@H]1CCN(C(=O)c2coc3c(O)c4c(c(O)c23)C(=O)c2ccccc2C4=O)C1,3300
6,N[C@H]1CCN(C(=O)c2coc3c(O)c4c(c(O)c23)C(=O)c2ccccc2C4=O)C1,1000
7,Cc1oc2c(O)c3c(c(O)c2c1CN1CC[C@@H](N)C1)C(=O)c1ccccc1C3=O,2800

# System: not listed separately
# Test: Substrate activity at P-gp in human K562/4 cells assessed as test compound accumulation at 2 uM after 1 to 24 hrs by flow cytometry
# Assay type: ADME, cell-based
# Settings: not given
row,Compound,Activity
1,N[C@H]1CCN(C(=O)c2coc3c(O)c4c(c(O)c23)C(=O)c2ccccc2C4=O)C1,Not Active

# System: not listed separately
# Test: Resistance index, ratio of IC50 for p53 knockout human HCT116 cells to IC50 for human HCT116 cells
# Assay type: functional
# Settings: not given
row,Compound,Ratio IC50
1,Cc1oc2c(O)c3c(c(O)c2c1CN1CC[C@H](N)C1)C(=O)c1ccccc1C3=O,0.8
2,NC1CCN(C(=O)c2coc3c(O)c4c(c(O)c23)C(=O)c2ccccc2C4=O)CC1,1.7
3,CN[C@H]1CCN(C(=O)c2coc3c(O)c4c(c(O)c23)C(=O)c2ccccc2C4=O)C1,1
4,CN1CCN(NC(=O)c2coc3c(O)c4c(c(O)c23)C(=O)c2ccccc2C4=O)CC1,1
5,N[C@@H]1CCN(C(=O)c2coc3c(O)c4c(c(O)c23)C(=O)c2ccccc2C4=O)C1,1
6,N[C@H]1CCN(C(=O)c2coc3c(O)c4c(c(O)c23)C(=O)c2ccccc2C4=O)C1,1.2
7,Cc1oc2c(O)c3c(c(O)c2c1CN1CC[C@@H](N)C1)C(=O)c1ccccc1C3=O,1

# System: MKN-45
# Test: Induction of apoptosis in human MKN45 cells after 24 hrs by Annexin V-FITC staining based flow cytometry
# Assay type: functional, cell-based
# Settings: not given
row,Compound,Activity
1,N[C@H]1CCN(C(=O)c2coc3c(O)c4c(c(O)c23)C(=O)c2ccccc2C4=O)C1,Dose-dependent effect

# System: HCT-116
# Test: Antiproliferative activity against human HCT116 cells after 72 hrs by MTT assay
# Assay type: functional, cell-based
# Settings: HCT-116, 72 h
row,Compound,IC50 [nM]
1,Cc1oc2c(O)c3c(c(O)c2c1CN1CC[C@H](N)C1)C(=O)c1ccccc1C3=O,3200
2,NC1CCN(C(=O)c2coc3c(O)c4c(c(O)c23)C(=O)c2ccccc2C4=O)CC1,6000
3,CN[C@H]1CCN(C(=O)c2coc3c(O)c4c(c(O)c23)C(=O)c2ccccc2C4=O)C1,5900
4,CN1CCN(NC(=O)c2coc3c(O)c4c(c(O)c23)C(=O)c2ccccc2C4=O)CC1,800
5,N[C@@H]1CCN(C(=O)c2coc3c(O)c4c(c(O)c23)C(=O)c2ccccc2C4=O)C1,5000
6,N[C@H]1CCN(C(=O)c2coc3c(O)c4c(c(O)c23)C(=O)c2ccccc2C4=O)C1,2800
7,Cc1oc2c(O)c3c(c(O)c2c1CN1CC[C@@H](N)C1)C(=O)c1ccccc1C3=O,2200

# System: TMK-1
# Test: Induction of apoptosis in human TMK1 cells after 24 hrs by Annexin V-FITC staining based flow cytometry
# Assay type: functional, cell-based
# Settings: not given
row,Compound,Activity
1,N[C@H]1CCN(C(=O)c2coc3c(O)c4c(c(O)c23)C(=O)c2ccccc2C4=O)C1,Dose-dependent effect

# System: TMK-1
# Test: Induction of ROS generation in human TMK1 cells at 0.1 to 1 uM after 30 mins by H2DCFDA staining based flow cytometry
# Assay type: functional, cell-based
# Settings: not given
row,Compound,Activity
1,N[C@H]1CCN(C(=O)c2coc3c(O)c4c(c(O)c23)C(=O)c2ccccc2C4=O)C1,Active

# System: HCT-116
# Test: Antiproliferative activity against p53 knockout human HCT116 cells after 72 hrs by MTT assay
# Assay type: functional, cell-based
# Settings: HCT-116, 72 h
row,Compound,IC50 [nM]
1,Cc1oc2c(O)c3c(c(O)c2c1CN1CC[C@H](N)C1)C(=O)c1ccccc1C3=O,2400
2,NC1CCN(C(=O)c2coc3c(O)c4c(c(O)c23)C(=O)c2ccccc2C4=O)CC1,10000
3,CN[C@H]1CCN(C(=O)c2coc3c(O)c4c(c(O)c23)C(=O)c2ccccc2C4=O)C1,5800
4,CN1CCN(NC(=O)c2coc3c(O)c4c(c(O)c23)C(=O)c2ccccc2C4=O)CC1,800
5,N[C@@H]1CCN(C(=O)c2coc3c(O)c4c(c(O)c23)C(=O)c2ccccc2C4=O)C1,5100
6,N[C@H]1CCN(C(=O)c2coc3c(O)c4c(c(O)c23)C(=O)c2ccccc2C4=O)C1,3400
7,Cc1oc2c(O)c3c(c(O)c2c1CN1CC[C@@H](N)C1)C(=O)c1ccccc1C3=O,2200

# System: L1210
# Test: Antiproliferative activity against mouse L1210 cells after 48 hrs by MTT assay
# Assay type: functional, cell-based
# Settings: L1210, 48 h
row,Compound,IC50 [nM]
1,Cc1oc2c(O)c3c(c(O)c2c1CN1CC[C@H](N)C1)C(=O)c1ccccc1C3=O,4400
2,NC1CCN(C(=O)c2coc3c(O)c4c(c(O)c23)C(=O)c2ccccc2C4=O)CC1,2400
3,CN[C@H]1CCN(C(=O)c2coc3c(O)c4c(c(O)c23)C(=O)c2ccccc2C4=O)C1,3500
4,CN1CCN(NC(=O)c2coc3c(O)c4c(c(O)c23)C(=O)c2ccccc2C4=O)CC1,2000
5,N[C@@H]1CCN(C(=O)c2coc3c(O)c4c(c(O)c23)C(=O)c2ccccc2C4=O)C1,2500
6,N[C@H]1CCN(C(=O)c2coc3c(O)c4c(c(O)c23)C(=O)c2ccccc2C4=O)C1,700
7,Cc1oc2c(O)c3c(c(O)c2c1CN1CC[C@@H](N)C1)C(=O)c1ccccc1C3=O,4300

# System: MKN-45
# Test: Induction of ROS generation in human MKN45 cells at 0.1 to 1 uM after 30 mins by H2DCFDA staining based flow cytometry
# Assay type: functional, cell-based
# Settings: not given
row,Compound,Activity
1,N[C@H]1CCN(C(=O)c2coc3c(O)c4c(c(O)c23)C(=O)c2ccccc2C4=O)C1,Active

# System: CCRF-CEM
# Test: Antiproliferative activity against human CEM cells after 72 hrs by MTT assay
# Assay type: functional, cell-based
# Settings: not given
row,Compound,IC50 [nM]
1,Cc1oc2c(O)c3c(c(O)c2c1CN1CC[C@H](N)C1)C(=O)c1ccccc1C3=O,3900
2,NC1CCN(C(=O)c2coc3c(O)c4c(c(O)c23)C(=O)c2ccccc2C4=O)CC1,4000
3,CN[C@H]1CCN(C(=O)c2coc3c(O)c4c(c(O)c23)C(=O)c2ccccc2C4=O)C1,4600
4,CN1CCN(NC(=O)c2coc3c(O)c4c(c(O)c23)C(=O)c2ccccc2C4=O)CC1,3200
5,N[C@@H]1CCN(C(=O)c2coc3c(O)c4c(c(O)c23)C(=O)c2ccccc2C4=O)C1,4000
6,N[C@H]1CCN(C(=O)c2coc3c(O)c4c(c(O)c23)C(=O)c2ccccc2C4=O)C1,1300
7,Cc1oc2c(O)c3c(c(O)c2c1CN1CC[C@@H](N)C1)C(=O)c1ccccc1C3=O,4300

# System: not listed separately
# Test: Resistance index, ratio of IC50 for human K562/4 cells to IC50 for human K562 cells
# Assay type: functional
# Settings: not given
row,Compound,Ratio IC50
1,Cc1oc2c(O)c3c(c(O)c2c1CN1CC[C@H](N)C1)C(=O)c1ccccc1C3=O,1.4
2,NC1CCN(C(=O)c2coc3c(O)c4c(c(O)c23)C(=O)c2ccccc2C4=O)CC1,4.2
3,CN[C@H]1CCN(C(=O)c2coc3c(O)c4c(c(O)c23)C(=O)c2ccccc2C4=O)C1,1.9
4,CN1CCN(NC(=O)c2coc3c(O)c4c(c(O)c23)C(=O)c2ccccc2C4=O)CC1,1.4
5,N[C@@H]1CCN(C(=O)c2coc3c(O)c4c(c(O)c23)C(=O)c2ccccc2C4=O)C1,1.6
6,N[C@H]1CCN(C(=O)c2coc3c(O)c4c(c(O)c23)C(=O)c2ccccc2C4=O)C1,1.3
7,Cc1oc2c(O)c3c(c(O)c2c1CN1CC[C@@H](N)C1)C(=O)c1ccccc1C3=O,1.6

# Target: T1, DNA topoisomerase 1 (Homo sapiens) (UniProt P11387)
# T1 sequence (whole entry): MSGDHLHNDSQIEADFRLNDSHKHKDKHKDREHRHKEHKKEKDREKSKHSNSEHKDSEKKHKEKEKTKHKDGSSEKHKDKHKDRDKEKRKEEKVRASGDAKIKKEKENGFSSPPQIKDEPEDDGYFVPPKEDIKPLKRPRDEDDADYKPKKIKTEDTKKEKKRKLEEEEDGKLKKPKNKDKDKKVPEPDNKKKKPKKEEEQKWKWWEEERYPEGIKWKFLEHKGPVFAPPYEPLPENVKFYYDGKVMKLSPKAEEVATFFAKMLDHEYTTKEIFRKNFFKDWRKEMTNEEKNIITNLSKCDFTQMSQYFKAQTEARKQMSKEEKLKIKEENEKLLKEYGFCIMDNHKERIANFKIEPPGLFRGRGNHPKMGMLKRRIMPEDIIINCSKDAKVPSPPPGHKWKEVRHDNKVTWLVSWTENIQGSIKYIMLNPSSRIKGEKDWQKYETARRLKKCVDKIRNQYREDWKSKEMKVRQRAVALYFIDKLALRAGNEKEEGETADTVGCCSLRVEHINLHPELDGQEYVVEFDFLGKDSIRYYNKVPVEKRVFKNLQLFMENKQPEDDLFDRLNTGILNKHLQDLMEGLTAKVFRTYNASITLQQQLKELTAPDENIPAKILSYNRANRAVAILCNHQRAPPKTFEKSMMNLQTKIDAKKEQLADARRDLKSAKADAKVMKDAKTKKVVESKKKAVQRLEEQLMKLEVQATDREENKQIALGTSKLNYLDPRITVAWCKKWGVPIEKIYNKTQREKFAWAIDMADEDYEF
# Test: Inhibition of human topoisomerase-1 using supercoiled pBR322 DNA as substrate after 30 mins by agarose gel electrophoresis method
# Settings: not given
row,Compound,inhibition
1,N[C@@H]1CCN(C(=O)c2coc3c(O)c4c(c(O)c23)C(=O)c2ccccc2C4=O)C1,Dose-dependent effect
2,N[C@H]1CCN(C(=O)c2coc3c(O)c4c(c(O)c23)C(=O)c2ccccc2C4=O)C1,Dose-dependent effect

# System: TMK-1
# Test: Induction of apoptosis in human TMK1 cells at 1 uM after 24 hrs by Annexin V-FITC staining based flow cytometry relative to control
# Assay type: functional
# Settings: not given
row,Compound,Activity
1,N[C@H]1CCN(C(=O)c2coc3c(O)c4c(c(O)c23)C(=O)c2ccccc2C4=O)C1,60 - 90%

# System: MKN-45
# Test: Induction of apoptosis in human MKN45 cells at 1 uM after 24 hrs by Annexin V-FITC staining based flow cytometry relative to control
# Assay type: functional
# Settings: not given
row,Compound,Activity
1,N[C@H]1CCN(C(=O)c2coc3c(O)c4c(c(O)c23)C(=O)c2ccccc2C4=O)C1,60 - 90%
